Reference: ChEMBL document CHEMBL1127583, “Discovery of a potent, peripherally selective trans-3,4-dimethyl-4-(3-hydroxyphenyl)piperidine opioid antagonist for the treatment of gastrointestinal motility disorders” (J Med Chem, 1994)

How the values were obtained:
[1] = molecular target: Kappa-type opioid receptor (Cavia porcellus) (UniProt P41144); experiment: Tested for binding affinity towards kappa receptor in presence of [3H]EKC radioligand at 100 nM
Mus musculus [2] = experiment: Tested for effective dose required to produce diarrhea in morphine dependent mice after peroral administration; assay type: functional
Mus musculus [3] = experiment: Tested for effective dose required to produce diarrhea in morphine dependent mice after subcutaneous administration; assay type: functional
Mus musculus [4] = experiment: Tested for reduction in the analgesic response to morphine after subcutaneous administration of 1.25 mg/kg in abdominal stretching assay; assay type: functional, Abdomen
[5] = molecular target: Kappa-type opioid receptor (Cavia porcellus) (UniProt P41144); experiment: Tested for binding affinity towards kappa receptor in presence of [3H]EKC radioligand at 10 nM
[6] = molecular target: Delta-type opioid receptor (Rattus norvegicus, UniProt P33533); experiment: Tested for binding affinity towards delta receptor in rat brain homogenates using [3H]D-Ala2-[…]-enkephalin as radioligand; assay type: tissue-based
Chain of Delta-type opioid receptor (Rattus norvegicus, UniProt P33533) (P33533 whole entry): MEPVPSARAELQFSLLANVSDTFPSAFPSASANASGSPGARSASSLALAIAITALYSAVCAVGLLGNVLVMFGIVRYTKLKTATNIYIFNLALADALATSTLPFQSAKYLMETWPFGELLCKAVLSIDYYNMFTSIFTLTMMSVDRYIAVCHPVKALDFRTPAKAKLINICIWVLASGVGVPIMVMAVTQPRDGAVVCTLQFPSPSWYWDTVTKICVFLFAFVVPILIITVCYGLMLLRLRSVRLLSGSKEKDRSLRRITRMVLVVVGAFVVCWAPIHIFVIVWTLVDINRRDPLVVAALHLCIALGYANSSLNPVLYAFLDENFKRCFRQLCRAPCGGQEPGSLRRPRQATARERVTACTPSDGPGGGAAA

Mu-type opioid receptor [7] = molecular target: Mu-type opioid receptor (Rattus norvegicus, UniProt P33535); experiment: Tested for binding affinity towards mu receptor in presence of [3H]NAL radioligand
Chain of Mu-type opioid receptor (Rattus norvegicus, UniProt P33535) (P33535 whole entry): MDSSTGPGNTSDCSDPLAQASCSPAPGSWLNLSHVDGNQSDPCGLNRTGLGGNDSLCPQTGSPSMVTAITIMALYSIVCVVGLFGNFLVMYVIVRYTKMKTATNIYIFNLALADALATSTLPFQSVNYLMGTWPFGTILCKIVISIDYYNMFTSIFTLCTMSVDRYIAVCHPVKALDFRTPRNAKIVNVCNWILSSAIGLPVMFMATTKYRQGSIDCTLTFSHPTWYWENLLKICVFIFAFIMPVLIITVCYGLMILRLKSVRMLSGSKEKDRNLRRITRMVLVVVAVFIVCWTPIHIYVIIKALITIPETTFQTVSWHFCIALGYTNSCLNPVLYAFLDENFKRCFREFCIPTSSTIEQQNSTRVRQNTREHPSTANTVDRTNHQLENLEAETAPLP

[8] = molecular target: T1, Kappa-type opioid receptor (Cavia porcellus, UniProt P41144); experiment: Tested for binding affinity towards kappa receptor in presence of [3H]EKC radioligand
T1 sequence (P41144 whole entry): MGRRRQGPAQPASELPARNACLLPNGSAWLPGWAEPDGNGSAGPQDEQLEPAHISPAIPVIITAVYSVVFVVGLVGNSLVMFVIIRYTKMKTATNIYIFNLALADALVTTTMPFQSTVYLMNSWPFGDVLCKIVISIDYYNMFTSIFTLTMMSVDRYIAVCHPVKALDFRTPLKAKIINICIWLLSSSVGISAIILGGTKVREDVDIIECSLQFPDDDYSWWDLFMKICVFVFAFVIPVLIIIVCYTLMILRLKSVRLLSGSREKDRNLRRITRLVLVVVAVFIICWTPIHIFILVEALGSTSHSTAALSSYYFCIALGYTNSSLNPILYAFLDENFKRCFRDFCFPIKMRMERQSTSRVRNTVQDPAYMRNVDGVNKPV

[9] = molecular target: T1, Kappa-type opioid receptor; experiment: Tested for its antagonist activity against kappa receptor using U-69,593 […] in isolated guinea pig ileum; assay type: functional, tissue-based; details: read-out: pA2 (converted)
Mu-type opioid receptor [10] = molecular target: Mu-type opioid receptor (Cavia porcellus, UniProt P97266); experiment: Tested for its antagonist activity against mu receptor using DAMGO […] in isolated guinea pig ileum; assay type: functional, tissue-based; details: read-out: pA2 (converted)
Chain of Mu-type opioid receptor (Cavia porcellus, UniProt P97266) (P97266 whole entry): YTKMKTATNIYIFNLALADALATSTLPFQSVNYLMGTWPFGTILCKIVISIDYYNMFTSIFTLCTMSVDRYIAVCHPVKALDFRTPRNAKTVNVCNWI

[11] = molecular target: Delta-type opioid receptor (Mus musculus, UniProt P32300); experiment: Tested for its antagonist activity against (DPDE)delta receptor in mouse vas deferens; assay type: functional, tissue-based; details: read-out: pA2 (converted)
Chain of Delta-type opioid receptor (Mus musculus, UniProt P32300) (P32300 whole entry): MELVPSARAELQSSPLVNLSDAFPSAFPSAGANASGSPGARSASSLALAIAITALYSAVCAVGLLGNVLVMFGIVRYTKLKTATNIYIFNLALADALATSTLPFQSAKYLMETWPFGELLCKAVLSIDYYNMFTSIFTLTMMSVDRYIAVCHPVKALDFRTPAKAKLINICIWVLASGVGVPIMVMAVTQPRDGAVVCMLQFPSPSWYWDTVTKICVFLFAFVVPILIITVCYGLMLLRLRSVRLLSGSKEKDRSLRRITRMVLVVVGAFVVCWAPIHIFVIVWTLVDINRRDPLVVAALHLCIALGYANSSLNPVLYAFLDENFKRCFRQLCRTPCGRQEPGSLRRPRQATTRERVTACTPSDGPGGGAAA

[12] = molecular target: Mu-type opioid receptor (Rattus norvegicus) (UniProt P33535); experiment: Tested for binding affinity towards mu receptor in presence of [3H]NAL radioligand at 10 nM
Chain of Mu-type opioid receptor (Rattus norvegicus) (P33535 whole entry): as the sequence (P33535 whole entry) above

[13] = molecular target: Mu-type opioid receptor (Rattus norvegicus) (UniProt P33535); experiment: Tested for binding affinity towards mu receptor in presence of [3H]NAL radioligand at 100 nM
[14] = Mus musculus, po, read-out: ED50
[15] = Mus musculus, sc, read-out: ED50

Chain of Kappa-type opioid receptor (Cavia porcellus) (P41144 whole entry): as the sequence (P41144 whole entry) above

C[C@H]1CN(CC(Cc2ccccc2)C(=O)NCC(=O)O)CC[C@@]1(C)c1cccc(O)c1 (stereo not given in full)
Specific Displacement [1]: 53%
ED50 (Mus musculus [2]; [14]): 2 mg/kg
ED50 (Mus musculus [3]; [15]): 0.028 mg/kg
AD50 (Mus musculus [4]): >40 mg/kg
Specific Displacement [5]: 23%

CC1CN(C[C@H](Cc2ccccc2)C(=O)NCC(=O)O)CCC1(C)c1cccc(O)c1 (stereo not given in full)
Ki [6]: 4.4 nM
ED50 (Mus musculus [2]; [14]): 0.84 mg/kg
Ki (Mu-type opioid receptor [7]): 0.77 nM
Ki [8]: 40 nM
Kb [9]: 15.8 nM
Kb (Mu-type opioid receptor [10]): 0.2 nM
ED50 (Mus musculus [3]; [15]): 0.04 mg/kg
AD50 (Mus musculus [4]): 9 mg/kg
Kb [11]: 2 nM

CC(C)COC(=O)CNC(=O)[C@H](Cc1ccccc1)CN1CC[C@@](C)(c2cccc(O)c2)[C@@H](C)C1
Specific Displacement [1]: 0%
ED50 (Mus musculus [2]; [14]): > 10 mg/kg
Specific Displacement [12]: 11%
ED50 (Mus musculus [3]; [15]): 0.5 mg/kg
Specific Displacement [13]: 70%
AD50 (Mus musculus [4]): 29.6 mg/kg
Specific Displacement [5]: 0%

C=CCN1CC[C@]23c4c5ccc(O)c4O[C@H]2C(=O)CC[C@@]3(O)[C@H]1C5 [NALOXONE]
ED50 (Mus musculus [3]; [15]): 0.05 mg/kg
AD50 (Mus musculus [4]): 0.08 mg/kg

C[C@H]1CN(CC(Cc2ccccc2)C(=O)O)CC[C@@]1(C)c1cccc(O)c1 (stereo not given in full)
Specific Displacement [1]: 15%
ED50 (Mus musculus [3]; [15]): 0.028 mg/kg
Specific Displacement [5]: 0%

CC(C)COC(=O)CNC(=O)[C@H](Cc1ccccc1)CN1CC[C@](C)(c2cccc(O)c2)[C@H](C)C1
Specific Displacement [1]: 34%
ED50 (Mus musculus [2]; [14]): > 10 mg/kg
Specific Displacement [12]: 57%
ED50 (Mus musculus [3]; [15]): 0.37 mg/kg
Specific Displacement [13]: 92%
AD50 (Mus musculus [4]): >40 mg/kg
Specific Displacement [5]: 0%

CC(C)COC(=O)CNC(=O)C(Cc1ccccc1)CN1CCC(C)(c2cccc(O)c2)C(C)C1 (racemic)
Specific Displacement [1]: 16%
ED50 (Mus musculus [2]; [14]): 1.1 mg/kg
Ki (Mu-type opioid receptor [7]): 4 nM
ED50 (Mus musculus [3]; [15]): 0.15 mg/kg
AD50 (Mus musculus [4]): >40 mg/kg
Specific Displacement [5]: 7%

CC(C)COC(=O)CNC(=O)[C@@H](Cc1ccccc1)CN1CC[C@@](C)(c2cccc(O)c2)[C@@H](C)C1
ED50 (Mus musculus [2]): 1.3 mg/kg
Ki (Mu-type opioid receptor [7]): 5.5 nM
Ki [8]: 23 nM
ED50 (Mus musculus [3]): 0.044 mg/kg
AD50 (Mus musculus [4]; 1.25 mg/kg): 11.6 mg/kg

CC(C)COC(=O)CNC(=O)[C@@H](Cc1ccccc1)CN1CCC(C)(c2cccc(O)c2)C(C)C1 (single isomer, unassigned)
Specific Displacement [1]: 55%
ED50 (Mus musculus [2]; [14]): 1.7 mg/kg
Ki (Mu-type opioid receptor [7]): 19.2 nM
ED50 (Mus musculus [3]): 0.02 mg/kg
AD50 (Mus musculus [4]; 1.25 mg/kg): 16.8 mg/kg
Specific Displacement [5]: 4%
